Patent US10144715B2, “Piperazine derivatives as liver X receptor modulators” (priority 2014, dated 2018)
Read-outs that look alike come from different tables or passages of the source.

Tests used:
[1] = molecular target: Gal4 DNA binding domain fused to the LBD of LXRα in HEK293 cells (Homo sapiens (Human), UniProt Q13133); assay: LXR luciferase transcriptional reporter gene assay, agonist mode, LXRα; assay type: cell-based; details: for EC50: read-out: Cell LXRα EC50
[2] = molecular target: LXR α LBD protein (Homo sapiens (Human), UniProt Q13133); assay: Human LXRα coactivator recruitment FRET assay, agonist mode; assay type: biochemical
Method: Two μL of the DMSO solutions were transferred to the plate and 38 μL of 10 nM LXRα-LBD or LXRβ-LBD (2×) were added immediately to the wells. The plate was shaken for 5 min at rt on an orbital micro shaker (DPC MicroMix® 5), after which 40 μL of 200 nM fluorescein-SRC2-3 peptide and 20 nM Terbium-anti-GST-antibody (Cat# PV3550, Life Technologies, Grand Island, N.Y.) solution (4×) were added to all. The plate was sealed and shaken for 2 min at rt, and incubated at rt for 2 h without agitation. […] The delay and window times were set at 100 and 200 microseconds, respectively. […] The percent control vs. compound concentration data were fit into a four-parameter model, and EC50 values were calculated from the fit as the concentrations corresponding to the inflection points on the concentration-response curves.

[3] = Biological Test Example 3, agonist mode

Chain of Gal4 DNA binding domain fused to the LBD of LXRα in HEK293 cells (Q13133 209-447): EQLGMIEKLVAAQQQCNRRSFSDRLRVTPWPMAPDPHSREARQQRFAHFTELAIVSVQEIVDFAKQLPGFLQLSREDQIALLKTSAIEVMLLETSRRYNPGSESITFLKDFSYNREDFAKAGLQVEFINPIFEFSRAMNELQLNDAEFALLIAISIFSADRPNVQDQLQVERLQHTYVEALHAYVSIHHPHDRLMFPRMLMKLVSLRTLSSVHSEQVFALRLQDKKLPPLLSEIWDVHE
Chain of LXR α LBD protein (Q13133 209-447): as above

| SMILES | Cell LXRα efficacy [1] | EC50 [1] [µM] | EC50 ([2]; agonist mode) [µM] | FRET LXRα efficacy ([2]; agonist mode) [%] | EC50 ([1]; Biological Test Example 2, agonist mode) [µM] | EC50 [2, 3] [µM] | FRET LXRα efficacy [2, 3] [%] | EC50 ([1]; agonist mode) [µM] |
| --- | --- | --- | --- | --- | --- | --- | --- | --- |
| CS(=O)(=O)c1cccc(N2CCN(C[C@H]3CC[C@@H](C(F)F)CC3)[C@H](c3ccccc3)C2)c1 (single isomer, unassigned) [48-16] | 2437 (10) % | 2.44 | 2.45 | 17 | – | – | – | – |
| CS(=O)(=O)c1cccc(N2CCN(C[C@H]3CC[C@H](C(F)F)CC3)[C@H](c3ccccc3)C2)c1 (single isomer, unassigned) [48-18] | 18796 (7) % | 18.8 | > 50 | – | – | – | – | – |
| CS(=O)(=O)c1cccc(N2CCN(CC3CCN(CC(F)(F)F)CC3)[C@H](c3ccccc3)C2)c1 (single isomer, unassigned) [48-51] | – | – | – | – | > 20 | 9.4 | 37 | – |
| COC(=O)[C@@H]1CN(c2cccc(S(C)(=O)=O)c2)CCN1C(=O)OC(C)(C)C [1-4, 1-(tert-butyl) 2-methyl (S)-4-(3-(methylsulfonyl)phenyl)piperazine-1,2-dicarboxylate] | 14195 (49) % | – | 13.5 | 67 | – | – | – | 14.2 |
| CC(C)(C)OC(=O)N1CCN(c2cccc(S(C)(=O)=O)c2)C[C@@H]1c1ccccc1 [1-6, tert-butyl (S)-4-(3-(methylsulfonyl)phenyl)-2-phenylpiperazine-1-carboxylate] | – | – | 8.39 | 14 | – | – | – | > 20 |
| COC(=O)c1ccc(N2CCN(C(=O)OC(C)(C)C)C(c3ccccc3)C2)cc1S(C)(=O)=O (stereo not shown) [2-3, tert-butyl 4-(4-(methoxycarbonyl)-3-(methylsulfonyl)phenyl)-2-phenylpiperazine-1-carboxylate] | – | – | 34.9 | 102 | – | – | – | > 20 |
| CC(C)[C@@H]1CN(c2ccc(C(N)=O)c(S(C)(=O)=O)c2)CCN1C(=O)OC(C)(C)C [4-1, tert-butyl (R)-4-(4-carbamoyl-3-(methylsulfonyl)phenyl)-2-isopropylpiperazine-1-carboxylate] | 15676 (21) % | 15.7 | 14.5 | 68 | – | – | – | – |
| CC(C)COC(=O)N1CCN(c2cccc(S(C)(=O)=O)c2)CC1c1ccccc1 (stereo not shown) [5-5, isobutyl 4-(3-(methylsulfonyl)phenyl)-2-phenylpiperazine-1-carboxylate] | 3049 (6) % | – | 2.5 | 33 | – | – | – | 3.05 |
| CC(C)OC(=O)N1CCN(c2cccc(S(C)(=O)=O)c2)CC1c1ccccc1 (stereo not shown) [5-8, isopropyl 4-(3-(methylsulfonyl)phenyl)-2-phenylpiperazine-1-carboxylate] | – | – | 19.8 | 41 | – | – | – | > 20 |
| CC(C)(C)OC(=O)N1CCN(c2cccc(S(C)(=O)=O)c2)C[C@H]1C(C)(C)O [6-1, tert-butyl (S)-2-(2-hydroxypropan-2-yl)-4-(3-(methylsulfonyl)phenyl)piperazine-1-carboxylate] | – | > 20 | > 50 | – | – | – | – | – |
| COC(=O)c1cnc(N2CCN(c3cccc(S(C)(=O)=O)c3)C[C@H]2C(C)C)nc1 [7-9, methyl (R)-2-(2-isopropyl-4-(3-(methylsulfonyl)phenyl)piperazin-1-yl)pyrimidine-5-carboxylate] | 3532 (36) % | – | 0.48 | 57 | – | – | – | 3.53 |
| CC(C)(C)C1CN(c2ccc(F)c(S(C)(=O)=O)c2)CCN1c1nccc(C(F)(F)F)n1 (stereo not shown) [7-29, 2-(2-(tert-butyl)-4-(4-fluoro-3-(methylsulfonyl)phenyl)piperazin-1-yl)-4-(trifluoromethyl)pyrimidine] | 150 (92) % | – | 0.161 | 101 | – | – | – | 0.15 |
| CC(C)[C@@H]1CN(c2ccc(C#N)c(S(C)(=O)=O)c2)CCN1c1ccc(C(F)(F)F)cn1 [7-37, (R)-4-(3-isopropyl-4-(5-(trifluoromethyl)pyridin-2-yl)piperazin-1-yl)-2-(methylsulfonyl)benzonitrile] | 1702 (96) % | – | 2.64 | 220 | – | – | – | 1.7 |
| CC(C)[C@@H]1CN(c2ccc(C#N)c(S(C)(=O)=O)c2)CCN1c1cccc(C(F)(F)F)n1 [7-38, (R)-4-(3-isopropyl-4-(6-(trifluoromethyl)pyridin-2-yl)piperazin-1-yl)-2-(methylsulfonyl)benzonitrile] | 2960 (86) % | – | 3.15 | 204 | – | – | – | 2.96 |
| CC(C)[C@@H]1CN(c2ccc(C#N)c(S(C)(=O)=O)c2)CCN1c1cc(C(F)(F)F)ccn1 [7-39, (R)-4-(3-isopropyl-4-(4-(trifluoromethyl)pyridin-2-yl)piperazin-1-yl)-2-(methylsulfonyl)benzonitrile] | 1502 (80) % | – | 1.43 | 191 | – | – | – | 1.5 |
| CS(=O)(=O)c1cccc(N2CCN(c3ccc(C(F)(F)F)cn3)[C@@H](c3ccccc3)C2)c1 [7-40, (S)-4-(3-(methylsulfonyl)phenyl)-2-phenyl-1-(5-(trifluoromethyl)pyridin-2-yl)piperazine] | – | – | 45.1 | 70 | – | – | – | > 20 |
| CS(=O)(=O)c1cccc(N2CCN(Cc3ccccc3)C(c3ccccc3)C2)c1 (stereo not shown) [46-4, 1-benzyl-4-(3-(methylsulfonyl)phenyl)-2-phenylpiperazine] | – | – | 0.875 | 41 | – | – | – | > 20 |
| CS(=O)(=O)c1cccc(N2CCN(Cc3cccc(C(F)(F)F)c3)C(c3ccccc3)C2)c1 (stereo not shown) [46-13, 4-(3-(methylsulfonyl)phenyl)-2-phenyl-1-(3-(trifluoromethyl)benzyl)piperazine] | – | – | 1.9 | 28 | – | – | – | > 20 |
| CS(=O)(=O)c1cccc(N2CCN(Cc3ccc(C(F)(F)F)c(Cl)c3)[C@H](Cc3ccccc3)C2)c1 [46-33, (R)-2-benzyl-1-(3-chloro-4-(trifluoromethyl)benzyl)-4-(3-(methylsulfonyl)phenyl)piperazine] | 2354 (44) % | – | 2.54 | 37 | – | – | – | 2.35 |
| Cc1ccc(CN2CCN(c3cccc(S(C)(=O)=O)c3)CC2c2ccccc2)cn1 (stereo not shown) [46-40, 1-((6-methylpyridin-3-yl)methyl)-4-(3-(methylsulfonyl)phenyl)-2-phenylpiperazine] | – | – | 4.12 | 38 | – | – | – | > 20 |
| CC1(c2ccccc2)CN(c2cccc(S(C)(=O)=O)c2)CCN1Cc1ccc(C(F)(F)F)nc1 (stereo not shown) [46-49, 2-methyl-4-(3-(methylsulfonyl)phenyl)-2-phenyl-1-((6-(trifluoromethyl)pyridin-3-yl)methyl)piperazine] | 3237 (12) % | – | 0.264 | 10 | – | – | – | 3.24 |
| CS(=O)(=O)c1cccc(N2CCN(Cc3ccc(C(F)(F)F)nc3)C(c3ccc(F)cc3)C2)c1 (stereo not shown) [46-51, 2-(4-fluorophenyl)-4-(3-(methylsulfonyl)phenyl)-1-((6-(trifluoromethyl)pyridin-3-yl)methyl)piperazine] | 3658 (17) % | – | 2.3 | 41 | – | – | – | 3.66 |
| CS(=O)(=O)c1cc(N2CCN(Cc3ccc(C(F)(F)F)nc3)C(c3ccccc3)C2)ccc1F (stereo not shown) [46-52, 4-(4-fluoro-3-(methylsulfonyl)phenyl)-2-phenyl-1-((6-(trifluoromethyl)pyridin-3-yl)methyl)piperazine] | 11699 (17) % | – | 5.2 | 20 | – | – | – | 11.7 |
| CS(=O)(=O)c1cccc(N2CCN(Cc3ccc(C(F)(F)F)nc3)C(c3ccc(Cl)cc3)C2)c1 (stereo not shown) [46-54, 2-(4-chlorophenyl)-4-(3-(methylsulfonyl)phenyl)-1-((6-(trifluoromethyl)pyridin-3-yl)methyl)piperazine] | – | – | – | 49 | – | – | – | > 20 |
| CS(=O)(=O)c1cc(N2CCN(Cc3ccc(C(F)(F)F)nc3)C(c3ccccc3)C2)ccc1C(N)=O (stereo not shown) [46-58, 2-(methylsulfonyl)-4-(3-phenyl-4-((6-(trifluoromethyl)pyridin-3-yl)methyl)piperazin-1-yl)benzamide] | 6986 (8) % | – | > 50 | – | – | – | – | 6.99 |
| CS(=O)(=O)c1cccc(N2CCN(Cc3ccc(C(F)(F)F)nc3)C(c3ccccc3Br)C2)c1 (stereo not shown) [46-60, 2-(2-bromophenyl)-4-(3-(methylsulfonyl)phenyl)-1-((6-(trifluoromethyl)pyridin-3-yl)methyl)piperazine] | 4383 (33) % | – | – | 39 | – | – | – | 4.38 |
| CS(=O)(=O)c1cc(N2CCN(Cc3ccc(C(F)(F)F)c(Cl)c3)C(c3ccccc3)C2)ccc1CO (stereo not shown) [47-4, (4-(4-(3-chloro-4-(trifluoromethyl)benzyl)-3-phenylpiperazin-1-yl)-2-(methylsulfonyl)phenyl)methanol] | 914 (96) % | – | 0.224 | 109 | – | – | – | 0.914 |
| CC(C)[C@@H]1CN(c2ccc(C#N)c(S(C)(=O)=O)c2)CCN1C(=O)OC(C)(C)C [Cpd No 3-1, tert-butyl (R)-4-(4-cyano-3-(methylsulfonyl)phenyl)-2-isopropylpiperazine-1-carboxylate] | 12810 (20) % | – | 18 | 76 | – | – | – | 12.8 |
